The source of these data is US20150327444A1, “PROCESS FOR THE OVERPRODUCTION OF SHIKIMIC ACID AND PHENOLIC ACIDS IN FRUIT AND VEGETABLE CROPS” (Instituto Tecnologico y de Estudios Superiores de Monterry, priority 2013, published 2015).

The subject of assay [1] is carrots (Daucus carota). The assay can be described thus: Effect of drying on SA and PC in wounding-stressed, glyphosate-sprayed carrot tissue (Example 7). The note with it: for Increase in concentration in dehydrated glyphosated grated material stored for 24 hours: vs grated carrot prior to storage (0 hours). How it is done:
The plant material used in this example comprised carrots (Daucus carota) obtained from a local supermarket (Monterrey, N. L., Mexico), which were washed and disinfected with chlorinated water in a concentration of 200 ppm, pH 6.5, in a ratio of 1:3 kg of plant material:liters of chlorinated water, for 10 min. This stage was carried out by grating the carrot with a commercial vegetable grater.

Assay [2] concerns carrots (Daucus carota). Put plainly: Overproduction of SA and PC by wounding stress and sprayed glyphosate 482 g/L in carrot tissue (Example 6). How it is done: (§1) The plant material used in this example comprised carrots (Daucus carota) obtained from a local supermarket (Monterrey, N. L., Mexico), which were washed and disinfected with chlorinated water in a concentration of 200 ppm, pH 6.5, in a ratio of 1:3 kg of plant material:liters of chlorinated water, for 10 min.
(§2) This stage was carried out by grating the carrot with a commercial vegetable grater. Stressed grated carrots having a diameter of 0.7 cm were obtained.
(§3) In this stage, the stressed grated plant tissue was treated by spraying (commercial sprayer) 100 mL of a concentrated solution of glyphosate (482 g/L).
Finally, the treated grated material was incubated at 25° C. for 24 hours at atmospheric pressure with a relative humidity of 65%, in total darkness, to determine the combined effect of wounding stress and glyphosate application on the accumulation of SA and PC.

In assay [3] the test system is carrots (Daucus carota). Put plainly: Effect of grinding on SA and PC in wounding-stressed, glyphosate-sprayed carrot tissue (Example 8). How it is done: as §1, §2, §3
The treated grated material was incubated at 25° C. […] at atmospheric pressure with a relative humidity of 65%, in total darkness, to determine the combined effect of wounding stress and glyphosate application on the accumulation of SA and PC.

The test system of assay [4] is carrots (Daucus carota). The assay can be described thus: Effect of method of application (submergence or spraying) of glyphosate solution on SA accumulation in grated carrot (Example 4). The conditions noted are these: glyphosate 482 g/L, 24 hours at 25° C. The text has this:
This difference is attributed to the removal of signal molecules which induce the response to the wounding as part of the submergence process. The (at least partial) removal of extracellular adenosine triphosphate (eATP, produced by the wounding stress effect) occurs in the submerged material, and this may be related to lesser generation of reactive oxygen species (ROS), thus reducing the yield of SA in comparison with application by spraying. Abiotic wounding stress activates the metabolic pathways involved in the production of phenolic compounds while the application of glyphosate makes it possible to block the flow of SA to the production of other compounds, thus bringing about an accumulation of SA in the horticultural crop. Thus the wounded carrots have been treated with a solution of glyphosate (0-482 g/L) using one of the two different methods of application (submergence and spraying), the spraying method being preferred because of its better yields, and stored for 24 hours to determine the combined effect of wounding stress and glyphosate application on the accumulation of SA and PC. In the first (submerged) method of application the grated material was submerged in a ratio of 1:2 to 1:4 (kg of plant material:liters of glyphosate solution), in such a way that said material was wholly submerged in the glyphosate solution. […]

Assay [5] deals with carrots (Daucus carota). The assay can be described thus: Effect of grinding on accumulation of SA in wounding-stressed grated carrot (Example 3). The conditions noted are these: vs grated carrot prior to storage (0 hours). How it is done: as §1
(§4) This stage was carried out by grating the carrot with a commercial vegetable grater. Stressed grated carrots having a diameter of 0.7 cm were obtained. […]
(§5) The SA extracts were analyzed following a method reported by Zelaya, I. A., Anderson, J. A., Owen, M. D. and Landes, R. D. Evaluation of spectrophotometric and HPLC methods for shikimic acid determination in plants: models in glyphosate-resistant and susceptible crops. […] The SA oxidized through the effect of the reaction was detected at 382 nm using a microplates reader (Synergy HT, Bio-Tek Instruments Inc., Winooski, Vt., USA). A standard curve for SA was constructed (1-1000 μM) to quantify the compound. The SA concentration was expressed as mg per kg of carrots in dry base (DB). The moisture content in the samples was determined by the method of drying in a stove (AACC 44-15A).

The subject of assay [6] is carrots (Daucus carota). The assay can be described thus: HPLC-PDA quantification of SA and individual phenolic compounds in grated carrot sprayed with glyphosate at different concentrations (Example 5). The note with it: after 24 hours' storage; estimated from HPLC-PDA.
Assay [7] deals with carrots (Daucus carota). Put plainly: Effect of wounding stress on accumulation of SA in grated carrot during storage (Example 1). The note with it: vs grated carrot prior to storage (0 hours); 25° C., no glyphosate. How it is done: as §1
Stage a) The previously washed and disinfected carrots were subjected to post-harvest abiotic stress.
as §2
Stage b) Incubation of the grated carrot stressed in a) to encourage the production and accumulation of SA and PC. […]
The SA was extracted from the horticultural crop using two different processes based on the method of detection and quantification which was to be used (spectrophotometry or chromatography). […]
The SA extracts were analyzed following a method reported by Zelaya, I. A., Anderson, J. A., Owen, M. D. and Landes, R. D. Evaluation of spectrophotometric and HPLC methods for shikimic acid determination in plants: models in glyphosate-resistant and susceptible crops. […] The SA oxidized through the effect of the reaction was detected at 382 nm using a microplates reader (Synergy HT, Bio-Tek Instruments Inc., Winooski, Vt., USA). A standard curve for SA was constructed (1-1000 μM) to quantify the compound. […]

Assay [8] has as its system carrots (Daucus carota). Put plainly: Effect of drying on accumulation of SA in wounding-stressed grated carrot (Example 2). The note with it: vs grated carrot prior to storage (0 hours). How it is done: as §1, §4, §5
Setting [9] is: vs grated carrot before storage (0 hours).
The mark [10] stands for this setting: sprayed 482 g/L glyphosate, vs control samples (0 hours).

Bounds are passed on as bounds.

Consider `O=C(/C=C/c1ccc(O)c(O)c1)O[C@@H]1C[C@](O)(C(=O)O)C[C@@H](O)[C@H]1O` (single isomer, unassigned) [CA, chlorogenic acid], for which the “Increase in content in the 482 g/L glyphosate treatment” value is around 1930% in the assay on carrots (Daucus carota) [1] (vs control samples at 24 hours), around 1980% with carrots (Daucus carota) [2] (vs control samples at 24 hours) and around 1940% in the assay on carrots (Daucus carota) [3] (vs control samples at 24 hours). For the same compound, the entries for the “Increase in concentration in dehydrated glyphosated grated material stored for 24 hours” value in the assay with carrots (Daucus carota) [1] and with carrots (Daucus carota) [3] (setting [9]) were around 1700% and around 11620%, respectively. The “Increase in concentration on spraying a concentrated solution of glyphosate onto carrot tissue stressed by wounding” value in the assay on carrots (Daucus carota) [2] is reported as above 5000%.
With `O=C(O)C1=C[C@@H](O)[C@@H](O)[C@H](O)C1` (single isomer, unassigned) [SA, shikimic acid], the “Increase in concentration after 24 hours' storage” value in the assay on carrots (Daucus carota) [1] (setting [10]) is around 1766%. Besides, the “Increase in concentration in dehydrated glyphosated grated material stored for 24 hours” value in the assay on carrots (Daucus carota) [1] is around 1550%. Further, the “Increase in accumulation, grated carrot sprayed with glyphosate vs submerged samples” value in the assay on carrots (Daucus carota) [4] is ~44% and ≈ 44%. Also, the “Increase in concentration in nutraceutical powder stored for 24 hours” value in the assay with carrots (Daucus carota) [5] (after drying and grinding) is listed as around 37%. The “Increase in concentration in grated carrot stored for 24 hours” value was around 48% in the assay on carrots (Daucus carota) [5] (no glyphosate), around 50% in the assay with carrots (Daucus carota) [7] and around 45% in the assay on carrots (Daucus carota) [8] (no glyphosate). In the assay on carrots (Daucus carota) [6], the “Increase in concentration in grated carrot not sprayed with glyphosate” value is reported as around 77%. In the assay with carrots (Daucus carota) [2], the “Increase in concentration on spraying a concentrated solution of glyphosate onto carrot tissue stressed by wounding” value is listed as “more than 1000%”. Moreover, the “Increase in concentration after 24 hours of storage” value in the assay on carrots (Daucus carota) [2] (setting [10]) is on record as around 1735%; with carrots (Daucus carota) [3] (setting [10]) it was around 1720%. Moreover, the “Increase in concentration in glyphosated powder stored for 24 hours” value in the assay with carrots (Daucus carota) [3] (setting [9]) is recorded as around 1470%. The “Increase in concentration in dehydrated nutraceutical grated material stored for 24 hours” value with carrots (Daucus carota) [8] (after drying) is around 40%.
